Measurements reported in PubChem BioAssay (NCI).
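Grown in 96-well plates, cells were treated for 48 hours with each compound at five concentrations. Insufficient inhibition: endpoint recorded as highest concentration tested. The concentration for full growth arrest is given as TGI.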

The compounds below were run on NCI-H226 lung (assay: inhibition of tumour cell growth, NCI panel, 48 h).
For CCCCCOc1ccc(Nc2c(O)c3c(c(O)c2Cl)C(=O)C=CC3=O)cc1, the TGI was over 10 µM.
With CCOC(=O)Oc1ccc(C(CNC(C)C)OC(=O)OCC)cc1OC(=O)OCC (centres undefined) the TGI was over 100 µM.

These compounds were tested on NCI-H23 lung (assay: inhibition of tumour cell growth, NCI panel, 48 h).
For C=C1C(=O)O[C@@H]2C[C@@H]3[C@]4(CC[C@]5(C)[C@@H]([C@H](C)CC/C=C(\C)C=O)CC[C@@]35C)C[C@]4(CCC(=O)OC)[C@H]12, the TGI was 3.77 µM.
CSc1ccc(NC(=O)C2CCCCC2C(=O)O)cc1 (centres undefined) showed a TGI of over 100 µM.
For CCCCCOc1ccc(Nc2c(O)c3c(c(O)c2Cl)C(=O)C=CC3=O)cc1, the TGI was over 6.51 µM.
CCOC(=O)Oc1ccc(C(CNC(C)C)OC(=O)OCC)cc1OC(=O)OCC (centres undefined) showed a TGI of over 100 µM.

These compounds were tested on NCI-H460 lung (assay: inhibition of tumour cell growth, NCI panel, 48 h).
With C=C1C(=O)O[C@@H]2C[C@@H]3[C@]4(CC[C@]5(C)[C@@H]([C@H](C)CC/C=C(\C)C=O)CC[C@@]35C)C[C@]4(CCC(=O)OC)[C@H]12 the TGI was 9.13 µM.
CSc1ccc(NC(=O)C2CCCCC2C(=O)O)cc1 (centres undefined) was tested, and the TGI was over 100 µM.
With CCCCCOc1ccc(Nc2c(O)c3c(c(O)c2Cl)C(=O)C=CC3=O)cc1 the TGI was over 10 µM.
CCOC(=O)Oc1ccc(C(CNC(C)C)OC(=O)OCC)cc1OC(=O)OCC (centres undefined) showed a TGI of over 100 µM.

These compounds were tested on NCI-H522 lung (assay: inhibition of tumour cell growth, NCI panel, 48 h).
C=C1C(=O)O[C@@H]2C[C@@H]3[C@]4(CC[C@]5(C)[C@@H]([C@H](C)CC/C=C(\C)C=O)CC[C@@]35C)C[C@]4(CCC(=O)OC)[C@H]12 gave a TGI of 8.91 µM.
Work on CSc1ccc(NC(=O)C2CCCCC2C(=O)O)cc1 (centres undefined) yielded a TGI of over 100 µM.
For CCCCCOc1ccc(Nc2c(O)c3c(c(O)c2Cl)C(=O)C=CC3=O)cc1, the TGI was 5.39 µM.
CCOC(=O)Oc1ccc(C(CNC(C)C)OC(=O)OCC)cc1OC(=O)OCC (centres undefined) gave a TGI of over 100 µM.

What follows are compounds tested on NCI/ADR-RES ovarian (assay: inhibition of tumour cell growth, NCI panel, 48 h).
C=C1C(=O)O[C@@H]2C[C@@H]3[C@]4(CC[C@]5(C)[C@@H]([C@H](C)CC/C=C(\C)C=O)CC[C@@]35C)C[C@]4(CCC(=O)OC)[C@H]12 was tested, and the TGI was 7.99 µM.
CSc1ccc(NC(=O)C2CCCCC2C(=O)O)cc1 (centres undefined) gave a TGI of over 100 µM.
CCCCCOc1ccc(Nc2c(O)c3c(c(O)c2Cl)C(=O)C=CC3=O)cc1 was tested, and the TGI was over 10 µM.
Compound CCOC(=O)Oc1ccc(C(CNC(C)C)OC(=O)OCC)cc1OC(=O)OCC (centres undefined) has a TGI of over 100 µM.

The compounds below were run on OVCAR-3 ovarian (assay: inhibition of tumour cell growth, NCI panel, 48 h).
Work on C=C1C(=O)O[C@@H]2C[C@@H]3[C@]4(CC[C@]5(C)[C@@H]([C@H](C)CC/C=C(\C)C=O)CC[C@@]35C)C[C@]4(CCC(=O)OC)[C@H]12 yielded a TGI of 3.02 µM.
Work on CSc1ccc(NC(=O)C2CCCCC2C(=O)O)cc1 (centres undefined) yielded a TGI of over 100 µM.
CCCCCOc1ccc(Nc2c(O)c3c(c(O)c2Cl)C(=O)C=CC3=O)cc1 gave a TGI of over 6.54 µM.
With CCOC(=O)Oc1ccc(C(CNC(C)C)OC(=O)OCC)cc1OC(=O)OCC (centres undefined) the TGI was over 100 µM.

The compounds below were run on OVCAR-4 ovarian (assay: inhibition of tumour cell growth, NCI panel, 48 h).
Compound C=C1C(=O)O[C@@H]2C[C@@H]3[C@]4(CC[C@]5(C)[C@@H]([C@H](C)CC/C=C(\C)C=O)CC[C@@]35C)C[C@]4(CCC(=O)OC)[C@H]12 has a TGI of 3.62 µM.
CSc1ccc(NC(=O)C2CCCCC2C(=O)O)cc1 (centres undefined) was tested, and the TGI was over 100 µM.
CCCCCOc1ccc(Nc2c(O)c3c(c(O)c2Cl)C(=O)C=CC3=O)cc1 showed a TGI of 9.97 µM.
In the case of CCOC(=O)Oc1ccc(C(CNC(C)C)OC(=O)OCC)cc1OC(=O)OCC (centres undefined), the TGI is reported as over 100 µM.

These compounds were tested on OVCAR-5 ovarian (assay: inhibition of tumour cell growth, NCI panel, 48 h).
For C=C1C(=O)O[C@@H]2C[C@@H]3[C@]4(CC[C@]5(C)[C@@H]([C@H](C)CC/C=C(\C)C=O)CC[C@@]35C)C[C@]4(CCC(=O)OC)[C@H]12, the TGI was 3.96 µM.
In the case of CSc1ccc(NC(=O)C2CCCCC2C(=O)O)cc1 (centres undefined), the TGI is reported as over 100 µM.
CCCCCOc1ccc(Nc2c(O)c3c(c(O)c2Cl)C(=O)C=CC3=O)cc1 gave a TGI of over 10 µM.
CCOC(=O)Oc1ccc(C(CNC(C)C)OC(=O)OCC)cc1OC(=O)OCC (centres undefined) gave a TGI of over 100 µM.

These compounds were tested on OVCAR-8 ovarian (assay: inhibition of tumour cell growth, NCI panel, 48 h).
For C=C1C(=O)O[C@@H]2C[C@@H]3[C@]4(CC[C@]5(C)[C@@H]([C@H](C)CC/C=C(\C)C=O)CC[C@@]35C)C[C@]4(CCC(=O)OC)[C@H]12, the TGI was 2.15 µM.
Work on CSc1ccc(NC(=O)C2CCCCC2C(=O)O)cc1 (centres undefined) yielded a TGI of over 100 µM.
Work on CCCCCOc1ccc(Nc2c(O)c3c(c(O)c2Cl)C(=O)C=CC3=O)cc1 yielded a TGI of over 5.87 µM.
CCOC(=O)Oc1ccc(C(CNC(C)C)OC(=O)OCC)cc1OC(=O)OCC (centres undefined) gave a TGI of over 100 µM.

The compounds below were run on PC-3 prostate (assay: inhibition of tumour cell growth, NCI panel, 48 h).
Compound C=C1C(=O)O[C@@H]2C[C@@H]3[C@]4(CC[C@]5(C)[C@@H]([C@H](C)CC/C=C(\C)C=O)CC[C@@]35C)C[C@]4(CCC(=O)OC)[C@H]12 has a TGI of 4.48 µM.
For CSc1ccc(NC(=O)C2CCCCC2C(=O)O)cc1 (centres undefined), the TGI was over 100 µM.
For CCCCCOc1ccc(Nc2c(O)c3c(c(O)c2Cl)C(=O)C=CC3=O)cc1, the TGI was over 10 µM.
CCOC(=O)Oc1ccc(C(CNC(C)C)OC(=O)OCC)cc1OC(=O)OCC (centres undefined) was tested, and the TGI was over 100 µM.

These compounds were tested on RPMI-8226 leukemia (assay: inhibition of tumour cell growth, NCI panel, 48 h).
For C=C1C(=O)O[C@@H]2C[C@@H]3[C@]4(CC[C@]5(C)[C@@H]([C@H](C)CC/C=C(\C)C=O)CC[C@@]35C)C[C@]4(CCC(=O)OC)[C@H]12, the TGI was 1.22 µM.
CSc1ccc(NC(=O)C2CCCCC2C(=O)O)cc1 (centres undefined) gave a TGI of over 100 µM.
In the case of CCCCCOc1ccc(Nc2c(O)c3c(c(O)c2Cl)C(=O)C=CC3=O)cc1, the TGI is reported as 7.76 µM.
With CCOC(=O)Oc1ccc(C(CNC(C)C)OC(=O)OCC)cc1OC(=O)OCC (centres undefined) the TGI was over 100 µM.

What follows are compounds tested on RXF 393 renal (assay: inhibition of tumour cell growth, NCI panel, 48 h).
C=C1C(=O)O[C@@H]2C[C@@H]3[C@]4(CC[C@]5(C)[C@@H]([C@H](C)CC/C=C(\C)C=O)CC[C@@]35C)C[C@]4(CCC(=O)OC)[C@H]12 was tested, and the TGI was 3.56 µM.
With CSc1ccc(NC(=O)C2CCCCC2C(=O)O)cc1 (centres undefined) the TGI was over 100 µM.
CCCCCOc1ccc(Nc2c(O)c3c(c(O)c2Cl)C(=O)C=CC3=O)cc1 showed a TGI of over 10 µM.
In the case of CCOC(=O)Oc1ccc(C(CNC(C)C)OC(=O)OCC)cc1OC(=O)OCC (centres undefined), the TGI is reported as over 100 µM.

Each compound was assayed on SF-268 CNS (assay: inhibition of tumour cell growth, NCI panel, 48 h).
Compound C=C1C(=O)O[C@@H]2C[C@@H]3[C@]4(CC[C@]5(C)[C@@H]([C@H](C)CC/C=C(\C)C=O)CC[C@@]35C)C[C@]4(CCC(=O)OC)[C@H]12 has a TGI of 2.73 µM.
Work on CSc1ccc(NC(=O)C2CCCCC2C(=O)O)cc1 (centres undefined) yielded a TGI of over 100 µM.
In the case of CCCCCOc1ccc(Nc2c(O)c3c(c(O)c2Cl)C(=O)C=CC3=O)cc1, the TGI is reported as over 10 µM.
With CCOC(=O)Oc1ccc(C(CNC(C)C)OC(=O)OCC)cc1OC(=O)OCC (centres undefined) the TGI was over 100 µM.

What follows are compounds tested on SF-295 CNS (assay: inhibition of tumour cell growth, NCI panel, 48 h).
In the case of C=C1C(=O)O[C@@H]2C[C@@H]3[C@]4(CC[C@]5(C)[C@@H]([C@H](C)CC/C=C(\C)C=O)CC[C@@]35C)C[C@]4(CCC(=O)OC)[C@H]12, the TGI is reported as 4.54 µM.
Compound CSc1ccc(NC(=O)C2CCCCC2C(=O)O)cc1 (centres undefined) has a TGI of over 100 µM.
Work on CCCCCOc1ccc(Nc2c(O)c3c(c(O)c2Cl)C(=O)C=CC3=O)cc1 yielded a TGI of over 10 µM.
With CCOC(=O)Oc1ccc(C(CNC(C)C)OC(=O)OCC)cc1OC(=O)OCC (centres undefined) the TGI was over 100 µM.

These compounds were tested on SF-539 CNS (assay: inhibition of tumour cell growth, NCI panel, 48 h).
C=C1C(=O)O[C@@H]2C[C@@H]3[C@]4(CC[C@]5(C)[C@@H]([C@H](C)CC/C=C(\C)C=O)CC[C@@]35C)C[C@]4(CCC(=O)OC)[C@H]12 showed a TGI of 4.22 µM.
In the case of CSc1ccc(NC(=O)C2CCCCC2C(=O)O)cc1 (centres undefined), the TGI is reported as over 100 µM.
CCCCCOc1ccc(Nc2c(O)c3c(c(O)c2Cl)C(=O)C=CC3=O)cc1 showed a TGI of over 10 µM.
Compound CCOC(=O)Oc1ccc(C(CNC(C)C)OC(=O)OCC)cc1OC(=O)OCC (centres undefined) has a TGI of over 100 µM.

The compounds below were run on SK-MEL-2 melanoma (assay: inhibition of tumour cell growth, NCI panel, 48 h).
C=C1C(=O)O[C@@H]2C[C@@H]3[C@]4(CC[C@]5(C)[C@@H]([C@H](C)CC/C=C(\C)C=O)CC[C@@]35C)C[C@]4(CCC(=O)OC)[C@H]12 gave a TGI of 3.43 µM.
